Assay results from patent US6399614B1, “1-(N-phenylaminoalkyl)piperazine derivatives substituted at position 2 of the phenyl ring” (Recordati S.A. Chemical and Pharmaceutical Company, priority 1997, dated 2002).

Tests used:
[1] = biological target: T1, pre-synaptic 5-HT1A receptor (Mus musculus, UniProt Q64264); assay: Antagonism of hypothermia induced by 8-OH-DPAT in mice (pre-synaptic antagonism); format: in vivo; settings: for ED50: mouse, iv, read-out: Pre-synaptic 5-HT1A ID50, heading: Pre-synaptic 5-HT1A ID50, dose blocking 50% of hypothermia induced by 0.5 mg/kg s.c. 8-OH-DPAT in mice, compound i.v.
T1 construct: from tissue; host or cells: whole animal, male CD-1 mice
T1 sequence (Q64264 1-421): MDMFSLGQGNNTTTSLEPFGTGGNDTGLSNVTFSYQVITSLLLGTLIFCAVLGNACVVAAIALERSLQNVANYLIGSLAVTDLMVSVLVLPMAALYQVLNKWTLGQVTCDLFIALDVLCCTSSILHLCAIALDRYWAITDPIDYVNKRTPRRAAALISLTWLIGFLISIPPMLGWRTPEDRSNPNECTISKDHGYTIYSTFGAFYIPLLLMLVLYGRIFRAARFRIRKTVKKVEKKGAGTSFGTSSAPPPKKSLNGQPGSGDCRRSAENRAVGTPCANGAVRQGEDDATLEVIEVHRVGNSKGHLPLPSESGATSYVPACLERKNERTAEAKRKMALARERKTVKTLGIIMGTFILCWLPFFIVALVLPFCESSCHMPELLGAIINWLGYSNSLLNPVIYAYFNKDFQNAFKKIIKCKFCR
Method: The antagonistic effect of the 5-HT1A receptor antagonists of the invention on hypothermia induced by 8-OH-DPAT was evaluated by the method of Moser (Moser, Eur.J.Pharmacol., 193:165, 1991) with minor modifications as described below. Male CD-1 mice (28-38 g) obtained from Charles River (Italy) were housed in a climate-controlled room (temperature 22±2 C.; humidity 55±15%) and maintained on a 12 h light/dark cycle with free access to food and water. On the day of experiment, mice were placed singly in clear plastic boxes under the same ambient conditions. Body temperature was measured by the insertion of a temperature probe (Termist TM-S, LSI) into the rectum to a depth of 2 cm. Rectal temperature was measured immediately prior to intravenous injection of the test compound. All animals then received 8-OH-DPAT (0.5 mg/kg s.c.) and their temperature was measured 30 min later. For each animal, temperature changes were calculated with respect to pretreatment values and the mean values were calculated for each treatment group. A linear regression equation was used in order to evaluate ID50 values, defined as the dose of antagonist needed to block 50% of the hypothermic effect induced by 0.5 mg/kg 8-OH-DPAT administered subcutaneously.

[2] = biological target: T2, 5-HT2A serotonergic receptors (Rattus norvegicus, UniProt P14842); assay: Radioreceptor binding, native 5-HT2A receptors, rat cerebral cortex ([3H]ketanserin); settings: Table 3A not given
T2 construct: from tissue; host or cells: rat cerebral cortex membranes
Method: (§1) Binding studies on native α2 adrenergic receptors (Diop L. et al, J. Neurochem. 41, 710-715, 1983), and 5-HT2A serotonergic receptors (Craig A. and Kenneth J., Life Sci. 38, 117-127, 1986) were carried out in membranes of rat cerebral cortex. Male Sprague Dawley rats (200-300 g, SD Harlan/Nossan, Italy) were killed by cervical dislocation and cerebral cortexes were excised and immediately frozen in liquid nitrogen and stored at −70° C. until use. Tissues were homogenized (2×20 sec) in 50 volumes of cold 50 mM Tris-HCl buffer pH 7.4, using a Polytron homogenizer (speed 7). Homogenates were centrifuged at 49000×g for 10 min, resuspended in 50 volumes of the same buffer, incubated at 37° C. for 15 min and centrifuged and resuspended twice more. […] Non-specific binding was determined in the presence of 10 μM phentolamine (a2-adrenergic receptors) or 2 μM ketanserin (5-HT2A serotoninergic receptors). […] The filters are then washed with ice-cold buffer and the radioactivity retained on the filters was counted by liquid scintillation spectrometry.
(§2) The inhibition of specific binding of the radioligands by the tested drugs was analyzed to estimate the IC50 value by using the non-linear curve-fitting program Allfit (De Lean et al., Am. J. Physiol. 235, E97-E102, 1978). […]

α2 adrenergic receptors = assay: Radioreceptor binding, native α2-adrenoceptors, rat cerebral cortex ([3H]rauwolscine); settings: Table 3A not given
Method: as §1, §2

T2 sequence (P14842 whole entry): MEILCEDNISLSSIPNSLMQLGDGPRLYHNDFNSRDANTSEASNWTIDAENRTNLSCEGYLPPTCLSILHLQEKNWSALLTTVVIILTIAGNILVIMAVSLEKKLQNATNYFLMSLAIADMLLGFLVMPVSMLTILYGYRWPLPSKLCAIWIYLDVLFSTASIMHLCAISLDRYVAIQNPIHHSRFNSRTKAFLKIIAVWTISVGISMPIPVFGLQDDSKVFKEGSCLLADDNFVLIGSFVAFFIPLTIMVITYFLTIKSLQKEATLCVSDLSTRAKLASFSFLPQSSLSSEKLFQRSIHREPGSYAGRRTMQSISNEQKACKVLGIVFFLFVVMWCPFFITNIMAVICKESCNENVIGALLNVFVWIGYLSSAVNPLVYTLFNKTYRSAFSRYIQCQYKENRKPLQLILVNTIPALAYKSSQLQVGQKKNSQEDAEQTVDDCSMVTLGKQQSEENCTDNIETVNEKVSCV

Compound: COc1ccccc1N1CCN(CCN(C(=O)C2CCCCC2)c2ccccc2)CC1 [Compound A, 1-(N-phenyl-N-cyclohexylcarbonyl-2-aminoethyl)-4-(2-methoxyphenyl)piperazine, reference compound]
- fold less active than compound of Example 2, pre-synaptic model ([1]; hypothermia model in mice): at least 10 fold
- ED50 [1]: 0.221 mg/kg

Compound: COc1ccccc1N1CCN(CCN(C(=O)C2CCCCC2)c2ccccc2[N+](=O)[O-])CC1 [Example 2, 1-[N-(2-nitrophenyl)-N-cyclohexylcarbonyl-2-aminoethyl]-4-(2-methoxyphenyl) piperazine]
- ED50 [1]: 0.02 mg/kg
- selectivity for the 5-HT1A receptor versus the 5-HT2A [2]: much more selective than compound A
- selectivity for the 5-HT1A receptor versus the a2-adrenoceptors (α2 adrenergic receptors): much more selective than compound A
